In patent publication US20250320184A1 (SIRONAX LTD., priority 2022, published 2025):

What follows are compounds tested against T1, SARM1 (50-724) (Homo sapiens, UniProt Q6SZW1) (assay: biochemical).
T1 sequence (Q6SZW1 50-724): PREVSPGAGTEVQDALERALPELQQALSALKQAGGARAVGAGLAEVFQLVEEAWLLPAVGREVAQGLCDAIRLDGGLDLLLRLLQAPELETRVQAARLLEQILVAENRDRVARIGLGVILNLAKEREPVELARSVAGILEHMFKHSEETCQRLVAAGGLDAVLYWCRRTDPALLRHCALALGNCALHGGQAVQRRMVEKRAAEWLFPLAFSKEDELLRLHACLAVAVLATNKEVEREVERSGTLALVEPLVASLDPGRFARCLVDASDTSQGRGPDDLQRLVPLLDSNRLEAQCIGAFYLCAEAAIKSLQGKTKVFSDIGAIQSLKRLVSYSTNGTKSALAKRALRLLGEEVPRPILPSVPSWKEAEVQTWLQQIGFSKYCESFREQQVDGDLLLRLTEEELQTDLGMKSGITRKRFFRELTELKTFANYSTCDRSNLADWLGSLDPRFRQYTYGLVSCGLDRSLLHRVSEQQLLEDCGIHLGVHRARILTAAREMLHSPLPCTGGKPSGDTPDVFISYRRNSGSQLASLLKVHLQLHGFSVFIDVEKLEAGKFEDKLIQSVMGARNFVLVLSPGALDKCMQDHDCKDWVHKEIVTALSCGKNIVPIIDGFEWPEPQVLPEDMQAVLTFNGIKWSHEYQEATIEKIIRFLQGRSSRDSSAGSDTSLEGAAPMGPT
Procedure: An enzymatic assay was performed in a 384-well plate using Dulbecco's phosphate-buffered saline (PBS) as the reaction buffer. […] The reaction was initiated by adding a mixture of 200 μM nicotinamide mononucleotide (NMN) as activator and 100 μM NAD^+ as substrate. After 1 h of incubation at room temperature, the reaction was terminated with 10 times volume of 70% acetonitrile, then centrifuged at 3800 rpm for 10 min.

Compound	IC50
CCC1CCCCN1S(=O)(=O)Nc1ccc2c(c1)C(=O)NCC2 (racemic) [Compound 48, 2-ethyl-N-(1-oxo-1,2,3,4-tetrahydroisoquinolin-7-yl)piperidine-1-sulfonamide]	> 1000 nM
O=S(=O)(Nc1ccc2c(c1)C(O)CCC2)c1cccc(Cl)c1Cl (racemic) [Compound 56, 2,3-dichloro-N-(8-hydroxy-5,6,7,8-tetrahydronaphthalen-2-yl)benzenesulfonamide]	< 100 nM
COC(=O)C1Cc2ccc(NS(=O)(=O)c3cccc(Cl)c3Cl)cc2C(=O)N1 (racemic) [Compound 90, methyl 7-((2,3-dichlorophenyl)sulfonamido)-1-oxo-1,2,3,4-tetrahydroisoquinoline-3-carboxylate]	100 to 500 nM
CC(Nc1ccc2ccn(C)c(=O)c2c1)c1ncc(Cl)s1 (racemic) [Compound 182, 7-((1-(5-chlorothiazol-2-yl)ethyl)amino)-2-methylisoquinolin-1(2H)-one]	> 1000 nM
CC(Nc1ccc2ccn(C)c(=O)c2c1)c1cncc(Cl)c1Cl (racemic) [Compound 184, 7-((1-(4,5-dichloropyridin-3-yl)ethyl)amino)-2-methylisoquinolin-1(2H)-one]	100 to 500 nM
CC(Nc1ccc2cc[nH]c(=O)c2c1)c1c(Cl)ccc(Cl)c1Cl (racemic) [Compound 185, 7-((1-(2,3,6-trichlorophenyl)ethyl)amino)isoquinolin-1(2H)-one]	< 100 nM
CC(Nc1ccc2ccn(CC3CC3)c(=O)c2c1)c1cccc(Cl)c1Cl (racemic) [Compound 186, 2-(cyclopropylmethyl)-7-((1-(2,3-dichlorophenyl)ethyl)amino)isoquinolin-1(2H)-one]	100 to 500 nM
CC(Nc1ccc2cc[nH]c(=O)c2c1)c1nc(Cl)c(Cl)s1 (racemic) [Compound 187, 7-((1-(4,5-dichlorothiazol-2-yl)ethyl)amino)isoquinolin-1(2H)-one]	< 100 nM
CC(Nc1ccc2cc[nH]c(=O)c2c1)c1nc(Cl)sc1Cl (racemic) [Compound 190, 7-((1-(2,5-dichlorothiazol-4-yl)ethyl)amino)isoquinolin-1(2H)-one]	100 to 500 nM
CC(C(N)=O)c1ccc(NS(=O)(=O)c2cccc(Cl)c2Cl)cc1 (racemic) [Compound 196, 2-(4-((2,3-dichlorophenyl)sulfonamido)phenyl)propanamide]	< 100 nM
Cc1nc(C(C)Nc2ccc3cc[nH]c(=O)c3c2)sc1Cl (racemic) [Compound 207, 7-((1-(5-chloro-4-methylthiazol-2-yl)ethyl)amino)isoquinolin-1(2H)-one]	< 100 nM
Cc1nc(C(C)Nc2ccc3cc[nH]c(=O)c3c2)c(Cl)n1C (racemic) [Compound 214, 7-((1-(5-chloro-1,2-dimethyl-1H-imidazol-4-yl)ethyl)amino)isoquinolin-1(2H)-one]	100 to 500 nM
CC(Nc1ccc2c(c1)NC(=O)C2(C)C)c1c(Cl)ccc(F)c1Cl (racemic) [Compound 215, 6-[1-(2,6-dichloro-3-fluoro-phenyl)ethylamino]-3,3-dimethyl-indolin-2-one]	< 100 nM
Cc1nc(C(C)Nc2ccc3nc[nH]c(=O)c3c2)sc1Cl (racemic) [Compound 216, 6-((1-(5-chloro-4-methylthiazol-2-yl)ethyl)amino)quinazolin-4(3H)-one]	< 100 nM

Now from value to compound:

IC50	Compound
< 100 nM	CC(Nc1ccc2c(c1)C(=O)N(C(C)C(N)=O)C2(C)C)c1nc(Cl)c(Cl)s1 (mixture of isomers) [Compound 334, 2-(5-((1-(4,5-dichlorothiazol-2-yl)ethyl)amino)-1,1-dimethyl-3-oxoisoindolin-2-yl)propanamide]
< 100 nM	Cc1c2ccc(NC(C)c3nc(Cl)c(Cl)s3)cc2nn1C1CC(O)C1 (mixture of isomers) [Compound 339, 3-(6-((1-(4,5-dichlorothiazol-2-yl)ethyl)amino)-3-methyl-2H-indazol-2-yl)cyclobutan-1-ol]
< 100 nM	CC(Nc1cc(F)c2ncn(C3CC(O)C3)c(=O)c2c1)c1cncc(Cl)c1Cl (mixture of isomers) [Compound 348, 6-((1-(4,5-dichloropyridin-3-yl)ethyl)amino)-8-fluoro-3-(3-hydroxycyclobutyl)quinazolin-4(3H)-one]
> 1000 nM	O=C1NCCc2ccc(NS(=O)(=O)N3CCCC4CCCCC43)cc21 (mixture of isomers) [Example 170, N-(1-oxo-1,2,3,4-tetrahydroisoquinolin-7-yl)octahydroquinoline-1(2H)-sulfonamide]
100 to 500 nM	O=C1NCCc2ccc(NS(=O)(=O)N3CCCC4CCCC43)cc21 (mixture of isomers) [Example 171]
> 1000 nM	CC1CCC(C)N(S(=O)(=O)Nc2ccc3c(c2)C(=O)NCC3)C1 (mixture of isomers) [Example 172, 2,5-dimethyl-N-(1-oxo-1,2,3,4-tetrahydroisoquinolin-7-yl)piperidine-1-sulfonamide]
100 to 500 nM	Cc1n[nH]c(=O)c2cc(NC(CC(O)CCO)c3nc(Cl)c(Cl)s3)ccc12 (mixture of isomers) [Example 293, 7-((1-(4,5-dichlorothiazol-2-yl)-3,5-dihydroxypentyl)amino)-4-methylphthalazin-1(2H)-one]
100 to 500 nM	CC(Nc1ccc2c(c1)NC(=O)CCC2)c1nc(Cl)c(Cl)s1 (racemic) [Compound 229, 8-[1-(4,5-dichlorothiazol-2-yl)ethylamino]-1,3,4,5-tetrahydro-1-benzazepin-2-one]
100 to 500 nM	CC(Nc1ccc2c(c1)NC(=O)CC2)c1nc(Cl)c(Cl)s1 (racemic) [Compound 230, 7-[1-(4,5-dichlorothiazol-2-yl)ethylamino]-3,4-dihydro-1H-quinolin-2-one]
< 100 nM	CC(Nc1ccc2ccc(=O)[nH]c2c1)c1nc(Cl)c(Cl)s1 (racemic) [Compound 231, 7-[1-(4,5-dichlorothiazol-2-yl)ethylamino]-1H-quinolin-2-one]
100 to 500 nM	CC(Nc1ccc2cc[nH]c(=O)c2c1)c1nn2c(c1Cl)CCCC2 (racemic) [Compound 232, 7-((1-(3-chloro-4,5,6,7-tetrahydropyrazolo[1,5-a]pyridin-2-yl)ethyl)amino)isoquinolin-1(2H)-one]
100 to 500 nM	CC(Nc1ccc2cc[nH]c(=O)c2c1)c1nc(Cl)c(Cl)n1C (racemic) [Compound 233, 7-((1-(4,5-dichloro-1-methyl-1H-imidazol-2-yl)ethyl)amino)isoquinolin-1(2H)-one]
100 to 500 nM	CC(Nc1ccc2cc[nH]c(=O)c2c1)c1nc2c(s1)CCCC2 (racemic) [Compound 236, 7-((1-(4,5,6,7-tetrahydrobenzo[d]thiazol-2-yl)ethyl)amino)isoquinolin-1(2H)-one]
100 to 500 nM	CC(Nc1ccc2c(c1)c(C(=O)N(C)C)nn2C)c1c(Cl)ccc(F)c1Cl (racemic) [Compound 245, 5-((1-(2,6-dichloro-3-fluorophenyl)ethyl)amino)-N,N1-trimethyl-1H-indazole-3-carboxamide]
< 100 nM	CNC(=O)c1nn(C)c2ccc(NC(C)c3c(Cl)ccc(F)c3Cl)cc12 (racemic) [Compound 246, 5-((1-(2,6-dichloro-3-fluorophenyl)ethyl)amino)-N,1-dimethyl-1H-indazole-3-carboxamide]
< 100 nM	CCn1nc(C(C)Nc2ccc3cc[nH]c(=O)c3c2)c(Cl)c1C (racemic) [Compound 247, 7-((1-(4-chloro-1-ethyl-5-methyl-1H-pyrazol-3-yl)ethyl)amino)isoquinolin-1(2H)-one]
